Results taken from patent publication US12312599B2, “Methods, compositions, and kits for producing beige adipocytes and treating metabolic disorders” (MaineHealth, priority 2018, dated 2025).

Assay: Activity of Y-27632 stock solutions
Type: physicochemical
Details: water based versus DMSO stock
Experimental: Note: Only use Y-27632 stock solutions that have been resuspended in DMSO. […] Conduct Mesoderm induction of iPSC in a laminar flow cabinet. • 3. Expand cells in NutriStem hPSC XF Medium overnight and change 100% of the medium without Y-27632 every 24 hours in a laminar flow cabinet for cell culture. When changing media, tilt plate up and allow media to pool at the bottom of wells. Aspirate the pooled medium without touching the surface of the plate. Replace with medium warmed to room temperature by pipetting 2 ml down the side of the wells. Cell Passaging • 1. Expand cell colonies until they have reached 70-80% confluence in high-density areas of the wells. High-density accumulation can occur along the edges of the well as well as the middle. Cells permitted to reach high density will lose their potential for differentiation after multiple passages. • 2. Prior to cell passage, warm cell wash buffer and NutriStem hPSC XF Medium to room temperature. Conduct cell passage in a laminar flow cabinet. • 3. Aspirate NutriStem hPSC XF Medium from wells with vacuum aspirator and wash with PBS without calcium or magnesium. Remove PBS and add 1 ml of ReLeSR reagent to side of well. Agitate plate to allow ReLeSR reagent to spread evenly on the surface. • 4. Aspirate ReLeSR reagent with vacuum aspirator after 30 seconds, which will leave behind a thin film of liquid. […]

Question: With `C[C@@H](N)[C@H]1CC[C@H](C(=O)Nc2ccncc2)CC1` [Y-27632] as the compound, how does the “inhibitor activity of water based stock solutions” value read?
Answer: lose significant inhibitor activity
